# In patent US20240279237A1, “FUSED BICYCLIC HETEROARYL COMPOUNDS USEFUL AS NLRP3 INHIBITORS” (Hoffmann-La Roche Inc., priority 2021, published 2024):
# Where a name gives a salt, the structure may show the parent alone.
# Target: T1, NLRP3 (Homo sapiens, UniProt Q96P20)
# T1 construct: Seed THP-1 cells (25,000 cells/well) containing 1.0 μg/ml LPS in 40 μl of RPMI medium; host or cells: THP-1 cells
# Assay: THP-1 Cells Pyroptosis Assay
# Format: cell-based
# Conditions: THP-1 cells with 1.0 μg/ml LPS; compound 3 hours; nigericin 5 μM 1 hr; resazurin readout
# Procedure, shortened: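 THP-1 cells in serum-free RPMI primed with LPS (1 μg/ml FAC), incubated with compound 3 h at 37 °C, then nigericin (5 μM FAC) for 1 h. Supernatant removed after spin; viability read by resazurin (100 μM FAC) reduction after a further 1-2 h at 37 °C.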
# T1 sequence (Q96P20 whole entry): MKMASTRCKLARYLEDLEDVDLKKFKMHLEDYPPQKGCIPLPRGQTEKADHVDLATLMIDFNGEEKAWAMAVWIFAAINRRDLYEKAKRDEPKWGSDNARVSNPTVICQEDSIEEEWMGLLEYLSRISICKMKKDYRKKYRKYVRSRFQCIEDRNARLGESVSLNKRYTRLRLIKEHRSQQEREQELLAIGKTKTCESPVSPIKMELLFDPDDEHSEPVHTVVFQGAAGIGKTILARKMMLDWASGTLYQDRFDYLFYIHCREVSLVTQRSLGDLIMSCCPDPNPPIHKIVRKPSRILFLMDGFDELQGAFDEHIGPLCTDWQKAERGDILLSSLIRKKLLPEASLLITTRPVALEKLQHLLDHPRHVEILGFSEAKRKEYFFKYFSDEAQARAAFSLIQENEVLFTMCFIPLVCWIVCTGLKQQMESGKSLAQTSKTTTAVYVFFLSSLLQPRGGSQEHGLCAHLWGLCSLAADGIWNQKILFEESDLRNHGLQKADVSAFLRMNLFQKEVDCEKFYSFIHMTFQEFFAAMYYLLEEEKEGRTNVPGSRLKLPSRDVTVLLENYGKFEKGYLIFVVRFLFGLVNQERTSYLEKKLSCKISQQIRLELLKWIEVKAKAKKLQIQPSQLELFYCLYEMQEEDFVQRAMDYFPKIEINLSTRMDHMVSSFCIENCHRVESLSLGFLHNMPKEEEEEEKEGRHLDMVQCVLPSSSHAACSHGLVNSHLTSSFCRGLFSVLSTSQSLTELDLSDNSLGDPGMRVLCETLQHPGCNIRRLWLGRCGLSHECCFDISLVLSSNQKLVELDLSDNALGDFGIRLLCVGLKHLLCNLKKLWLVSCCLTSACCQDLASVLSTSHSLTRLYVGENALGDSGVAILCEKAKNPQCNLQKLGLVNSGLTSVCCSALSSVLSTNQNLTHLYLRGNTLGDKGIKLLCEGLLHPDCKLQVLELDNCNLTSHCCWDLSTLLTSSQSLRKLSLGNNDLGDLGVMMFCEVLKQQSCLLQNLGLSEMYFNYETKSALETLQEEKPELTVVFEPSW
row,Compound,IC50 [nM]
1,"CCN1C[C@H](O)C[C@@H](Nc2nc3nc(-c4c(C)cc(C#N)cc4O)ccc3o2)C1 [Example 71, 4-[2-[[(3R,5R)-1-Ethyl-5-hydroxy-3-piperidyl]amino]oxazolo[4,5-b]pyridin-5-yl]-3-hydroxy-5-methyl-benzonitrile]",1.1
2,"CCN1CCCC(c2nc3nc(-c4c(C)cc(C(F)(F)F)cc4O)ccc3o2)C1 (stereo not shown) [Example 138, 2-[2-(1-Ethyl-3-piperidyl)oxazolo[4,5-b]pyridin-5-yl]-3-methyl-5-(trifluoromethyl)phenol]",234
3,"Cc1cc(Cl)cc(O)c1-c1ccc2oc(N[C@@H]3CCCN(CC4CC(O)C4)C3)nc2n1 (stereo partly drawn) [Example 75, 5-Chloro-3-methyl-2-[2-[[(3R)-1-[(3-hydroxycyclobutyl)methyl]-3-piperidyl]amino]oxazolo-[4,5-b]pyridin-5-yl]phenol]",20.8
4,"Cc1cc(C(F)(F)F)cc(O)c1-c1ccc2[nH]c(N3CCNCC3)nc2n1 [Example 8, 3-Methyl-2-(2-piperazin-1-yl-1H-imidazo[4,5-b]pyridin-5-yl)-5-(trifluoromethyl)phenol;2,2,2-trifluoroacetic acid]",302
5,"Cc1cc(Cl)cc(O)c1-c1ccc2oc(NCc3ncc[nH]3)nc2n1 [Example 76, 5-Chloro-2-[2-(1H-imidazol-2-ylmethylamino)oxazolo[4,5-b]pyridin-5-yl]-3-methyl-phenol]",143
6,"Cc1cc(Cl)cc(O)c1-c1ccc2oc(CC3CCCN(C)C3)nc2n1 (stereo not shown) [Example 83, 5-Chloro-3-methyl-2-[2-[(1-methyl-3-piperidyl)methyl]oxazolo[4,5-b]pyridin-5-yl]phenol]",5.1
7,"Cc1cc(Cl)cc(O)c1-c1ccc2oc(N(CCO)[C@@H]3CCCN(C)C3)nc2n1 [Example 98, 5-Chloro-2-[2-[2-hydroxyethyl-[(3R)-1-methyl-3-piperidyl]amino]oxazolo[4,5-b]pyridin-5-yl]-3-methyl-phenol]",11.1
8,"Cc1cc(Cl)cc(O)c1-c1ccc2oc(NCC3CC(O)C3)nc2n1 (stereo not shown) [Example 92, 5-Chloro-2-[2-[(3-hydroxycyclobutyl)methylamino]oxazolo[4,5-b]pyridin-5-yl]-3-methyl-phenol]",26.9
9,"Cc1cc(C(F)(F)F)cc(O)c1-c1ccc2oc(NC3CCOC3)nc2n1 (racemic) [Example 38, (rac)-3-Methyl-2-[2-(tetrahydrofuran-3-ylamino)oxazolo[4,5-b]pyridin-5-yl]-5-(trifluoromethyl)phenol]",85.3
10,"CCN1CCC[C@@H](Nc2nc3nc(-c4c(C)cc(C)cc4O)ccc3o2)C1 [Example 123, 2-[2-[[(3R)-1-Ethyl-3-piperidyl]amino]oxazolo[4,5-b]pyridin-5-yl]-3,5-dimethyl-phenol]",0.7
11,"Cc1cc(C(F)(F)F)cc(O)c1-c1ccc2oc(N3CCOC(CO)C3)nc2n1 (racemic) [Example 5, (rac)-[2-[2-(Hydroxymethyl)morpholin-4-yl]oxazolo[4,5-b]pyridin-5-yl]-3-methyl-5-(trifluoromethyl)phenol]",31.9
12,"2-[2-[[(3S or 3R)-1-Ethyl-3-piperidyl]amino]-1H-imidazo[4,5-b]pyridin-5-yl]-3-methyl-5-(trifluoromethyl)phenol [Example 18B]",392
13,"CCN1CCC[C@@H](Nc2nc3nc(-c4c(C)cc(C(F)(F)F)cc4O)cc(C#N)c3o2)C1 [Example 117, 2-[[(3R)-1-Ethyl-3-piperidyl]amino]-5-[2-hydroxy-6-methyl-4 (trifluoromethyl)phenyl]-oxazolo[4,5-b]pyridine-7-carbonitrile]",5.2
14,"Cc1cc(C(F)(F)F)cc(O)c1-c1ccc2oc(N3CCOCC3CN(C)C)nc2n1 (single isomer, unassigned) [Example 2A, 2-[2-[(3R or 3S)-3-[(Dimethylamino)methyl]morpholin-4-yl]oxazolo[4,5-b]pyridin-5-yl]-3-methyl-5-(trifluoromethyl)phenol]",129
15,"Cc1cc(C(F)(F)F)cc(O)c1-c1ccc2oc(N3CCO[C@H]4CNC[C@@H]43)nc2n1 (racemic) [Example 64, 3-Methyl-2-[2-[rac-(4aS,7aS)-3,4a,5,6,7,7a-hexahydro-2H-pyrrolo[3,4-b][1,4]oxazin-4-yl]oxazolo[4,5-b]pyridin-5-yl]-5-(trifluoromethyl)phenol;2,2,2-trifluoroacetic acid]",4.9
16,"CCN1CCC2CCN(c3nc4nc(-c5c(C)cc(C#N)cc5O)ccc4o3)C2C1 (single isomer, unassigned) [Example 72B, 4-[2-[(3aR,7aS)-6-ethyl-3,3a,4,5,7,7a-hexahydro-2H-pyrrolo[2,3-c]pyridin-1-yl]oxazolo[4,5-b]pyridin-5-yl]-3-hydroxy-5-methyl-benzonitrile or 4-[2-[(3aS,7aR)-6-Ethyl-3,3a,4,5,7,7a-hexahydro-2H-pyrrolo[2,3-c]pyridin-1-yl]oxazolo[4,5-b]pyridin-5-yl]-3-hydroxy-5-methyl-benzonitrile]",310

row,Compound,IC50 [nM]
1,"Cc1cc(Cl)cc(O)c1-c1ccc2oc([C@@H]3CCC(=O)NC3)nc2n1 (single isomer, unassigned) [Example 73B, (5R)-5-[5-(4-Chloro-2-hydroxy-6-methyl-phenyl)oxazolo[4,5-b]pyridin-2-yl]piperidin-2-one or (5S)-5-[5-(4-chloro-2-hydroxy-6-methyl-phenyl)oxazolo[4,5-b]pyridin-2-yl]piperidin-2-one]",78.7
2,"Cc1cc(C(F)(F)F)cc(O)c1-c1cc(C)c2oc(N[C@@H]3CCCN(C)C3)nc2n1 [Example 33, 3-Methyl-2-[7-methyl-2-[[(3R)-1-methyl-3-piperidyl]amino]oxazolo[4,5-b]pyridin-5-yl]-5-(trifluoromethyl)phenol;2,2,2-trifluoroacetic acid salt]",5.8
3,"Cc1cc(C(F)(F)F)cc(O)c1-c1ccc2oc(N3CCOCC3CN(C)C)nc2n1 (single isomer, unassigned) [Example 2B, 2-[2-[(3S or 3R)-3-[(Dimethylamino)methyl]morpholin-4-yl]oxazolo[4,5-b]pyridin-5-yl]-3-methyl-5-(trifluoromethyl)phenol]",16.9
4,"Cc1cc(Cl)cc(O)c1-c1ccc2oc(N[C@@H]3CCC[C@H]3N(C)C)nc2n1 [Example 112, 5-Chloro-2-[2-[[(1R,2R)-2-(dimethylamino)cyclopentyl]amino]oxazolo[4,5-b]pyridin-5-yl]-3-methyl-phenol]",6.6
5,"Cc1cc(C#N)cc(O)c1-c1ccc2oc(N[C@@H]3CCC[C@H]3N(C)C)nc2n1 [Example 108, 4-[2-[[(1R,2R)-2-(Dimethylamino)cyclopentyl]amino]oxazolo[4,5-b]pyridin-5-yl]-3-hydroxy-5-methyl-benzonitrile]",16.8
6,"Cc1cc(Cl)cc(O)c1-c1ccc2oc(C3CCC(=O)NC3)nc2n1 (stereo not shown) [Example 73, 5-[5-(4-Chloro-2-hydroxy-6-methyl-phenyl)oxazolo[4,5-b]pyridin-2-yl]piperidin-2-one]",30
7,"CCN1CCCC[C@@H](Nc2nc3nc(-c4c(C)cc(C(F)(F)F)cc4O)ccc3o2)C1 [Example 91, 2-[2-[[(3R)-1-Ethylazepan-3-yl]amino]oxazolo[4,5-b]pyridin-5-yl]-3-methyl-5-(trifluoromethyl)phenol]",4.9
8,"Cc1cc(C)c(-c2ccc3oc(N[C@@H]4CCCN(C)C4)nc3n2)c(O)c1 [Example 128, 3,5-Dimethyl-2-[2-[[(3R)-1-methyl-3-piperidyl]amino]oxazolo[4,5-b]pyridin-5-yl]phenol;2,2,2-trifluoroacetic acid]",1.8
9,"Cc1cc(C#N)cc(O)c1-c1ccc2oc(NC3CCCN4C[C@@H](O)CC34)nc2n1 (stereo partly drawn) [Example 115, 3-Hydroxy-5-methyl-4-[2-[[(2S)-2-hydroxy-1,2,3,5,6,7,8,8a-octahydroindolizin-8-yl]amino]oxazolo[4,5-b]pyridin-5-yl]benzonitrile;2,2,2-trifluoroacetic acid]",48.5
10,"CNC1(c2nc3nc(-c4c(C)cc(C(F)(F)F)cc4O)ccc3o2)CCOCC1 [Example 135, 3-Methyl-2-[2-[4-(methylamino)tetrahydropyran-4-yl]oxazolo[4,5-b]pyridin-5-yl]-5-(trifluoromethyl)phenol;2,2,2-trifluoroacetic acid]",505
11,"CCN1CCC[C@@H](Nc2nc3nc(-c4c(C)cc5c(c4O)CCO5)ccc3o2)C1 [Example 48, 5-[2-[[(3R)-1-Ethyl-3-piperidyl]amino]oxazolo[4,5-b]pyridin-5-yl]-6-methyl-2,3-dihydrobenzofuran-4-ol]",1.2
12,"CCN1CCC[C@@H](Nc2nc3nc(-c4c(C)cc(C(F)(F)F)cc4O)cc(OC)c3o2)C1 [Example 104, 2-[2-[[(3R)-1-Ethyl-3-piperidyl]amino]-7-methoxy-oxazolo[4,5-b]pyridin-5-yl]-3-methyl-5-(trifluoromethyl)phenol]",1.9
13,"CCN1CC[C@@H](F)[C@@H](Nc2nc3nc(-c4c(C)cc(Cl)cc4O)ccc3o2)C1 [Example 99A, 5-Chloro-2-[2-[[(3S,4R)-1-ethyl-4-fluoro-3-piperidyl]amino]oxazolo[4,5-b]pyridin-5-yl]-3-methyl-phenol]",1.9
14,"Cc1cc(Cl)cc(O)c1-c1ccc2oc(N[C@@H]3CCCN(C[C@@H]4CC[C@H]4O)C3)nc2n1 (racemic) [Example 118A, 5-chloro-2-[2-[[(3R)-1-[[rac trans-2-hydroxycyclobutyl]methyl]-3-piperidyl]amino]oxazolo[4,5-b]pyridin-5-yl]-3-methyl-phenol or 5-chloro-2-[2-[[(3R)-1-[[rac cis-2-hydroxycyclobutyl]methyl]-3-piperidyl]amino]oxazolo[4,5-b]pyridin-5-yl]-3-methyl-phenol]",50.8
15,"Cc1cc(C(F)(F)F)cc(O)c1-c1ccc2oc(N[C@@H]3CCCN(CCO)C3)nc2n1 [Example 52, 2-[2-[[(3R)-1-(2-Hydroxyethyl)-3-piperidyl]amino]oxazolo[4,5-b]pyridin-5-yl]-3-methyl-5-(trifluoromethyl)phenol]",2.3
